Where a name gives a salt, the structure may show the parent alone. Read-outs that look alike come from different tables or passages of the source.

In this test the test system is mice. Kind of test: Neuropharmacological Assay (SmartCube): automated behavioral signature of compound-treated mice compared with a database of reference drug classes. It is filed as in vivo. The note with it: for minimal effective dose: Mus musculus, ip; for minimal effective dose / MED (minimal effective dose) / MED: i.p., that dose is shown. From the text:
Neurosci. 2011 Sep. 9; 5: 103 (doi: 10.3389/fnins.2011.00103) (“Roberds”). As reported in Roberds, because psychiatric diseases generally result from disorders of cell-cell communication or circuitry, intact systems are useful in detecting improvement in disease-relevant endpoints. These endpoints are typically behavioral in nature, often requiring human observation and interpretation. To facilitate testing of multiple compounds for behavioral effects relevant to psychiatric disease, PsychoGenics, Inc. (Tarrytown, NY, “PGI”) developed SmartCube™ an automated system in which behaviors of compound-treated mice are captured by digital video and analyzed with computer algorithms. (D. Brunner et al. Drug Discov. Today 2002, 7:S107-S112). PGI Analytical Systems uses data from SmartCube™ to compare the behavioral signature of a test compound to a database of behavioral signatures obtained using a large set of diverse reference compounds. (The composition of the database as well as validation of the method is further described in Roberds). In this way, the neuropharmacological effects of a test compound can be predicted by similarity to major classes of compounds, such as antipsychotics, anxiolytics and antidepressants.
The SmartCube™ system produces an activity signature indicating the probability that the activity of the test compound at the administered dose matches a given class of neuropharmacological agents. (See, e.g., Roberds, FIGS. 2 and 3). The test compound is simultaneously compared against multiple classes of agents; thus, a separate probability is generated for each behavioral effect measured (e.g., anxiolytic activity, analgesic activity, etc.). In table 2 below, these probabilities are reported for each behavioral effect measured as described in Table 1 below.
Provided compounds were dissolved in a mixture of Pharmasolve™ (N-methyl-2-pyrrolidone), polyethylene glycol and propylene glycol, and were injected i.p. 15 min. before the behavioral test. For each compound, injections were administered at 3 different doses. For each behavioral effect measured, results for the 3.0 mg/kg dose are presented. The potency of many of the compounds in the table was also determined in the SmartCube™ system. Test compounds were routinely examined at dose levels of 0.3, 1, 3 and 10 mg per kg (mpk), although the dose range was increased or decreased, if necessary, to obtain a full dose response curve. A compound's minimal effective dose (MED) is a measure of the compound's potency. The MED was defined as the dose (in mpk) having 45% or more total activity in SmartCube. If only one dose was tested, that dose is shown in the MED column of Table 2 even though the dose is not known to be the MED.

[1] abbreviates: minimal effective dose: dose having 45% or more total activity in SmartCube, if only one dose tested, read-out: MED.
Setting [2] is: SmartCube class probability, 3.0 mg/kg i.p., 15 min before test.
[3] abbreviates: dose having 45% or more total activity in SmartCube, if only one dose was tested, hydrochloride.
[4] abbreviates: probability that activity matches this class of agents, 3.0 mg/kg i.p., 15 min before test.
The mark [5] stands for this setting: probability that activity matches this class of agents, 3.0 mg/kg i.p., 15 min before test, hydrochloride, 3 mg/kg.
The mark [6] stands for this setting: probability that activity matches this class of agents, 3.0 mg/kg i.p., 15 min before test, 3 mg/kg.
[7] abbreviates: SmartCube probability class, 3.0 mg/kg dose, i.p. 15 min before the behavioral test.
Setting [8] is: SmartCube probability class, 3.0 mg/kg dose, i.p. 15 min before the behavioral test, hydrochloride, 3 mg/kg.
[9] abbreviates: SmartCube class probability, 3.0 mg/kg i.p., 15 min before test, hydrochloride, 3 mg/kg.

`CNC1COc2csc(C(F)(F)F)c2C1` (stereo not drawn) [Compound 153, N-methyl-5-(trifluoromethyl)-3,4-dihydro-2H-thieno[3,4-b]pyran-3-amine hydrochloride]: under setting [1], the minimal effective dose worked out at 3 mg/kg. Moreover, under setting [2], the AD entry is recorded as “++++ (≥74%)”, the AG entry is on record as “ND (^ <4%)”, the AN entry was “ND (^ <4%)” and the AP result was “ND (^ <4%)”. Also, under setting [2], the AX result is “ND (^ <4%)”, the CE entry is on record as “ND (^ <4%)”, the HL entry is recorded as “ND (^ <4%)” and the MS result is reported as “ND (^ <4%)”. Under setting [2], the PS result is “ND (^ <4%)”, the SH result is “ND (^ <4%)” and the UK result is given as “ND (^ <4%)”.
Regarding `CNC1CCc2csc(C#N)c2C1` (single isomer, unassigned) [Compound 133, 6-(methylamino)-4,5,6,7-tetrahydro-2-benzothiophene-1-carbonitrile hydrochloride], the “MED (minimal effective dose)” value under setting [3] was under 1 mpk. Under setting [4], the AG entry was “ND (^ <4%)”, the AN result is given as “ND (^ <4%)”, the AX result is on record as “ND (^ <4%)” and the CE result is on record as “ND (^ <4%)”. Moreover, under setting [4], the HL entry is listed as “ND (^ <4%)”, the MS entry is given as “ND (^ <4%)”, the PS entry is on record as “ND (^ <4%)” and the SH result is “ND (^ <4%)”. Under setting [5], the AD result is “+++ (≥49%)”, the AP result is on record as “+ (≥4%)” and the UK entry is on record as “ND (^ <4%)”.
Regarding `NC1CCc2scc(C3CC3)c2C1` (single isomer, unassigned) [Compound 278, 3-cyclopropyl-4,5,6,7-tetrahydrobenzothiophen-5-amine hydrochloride], under setting [2], the AD result is “ND (^ <4%)” and the UK result is reported as “+ (≥4%)”. For the same molecule, the MED (minimal effective dose: dose having 45% or more total activity in SmartCube, if only one dose tested) was over 3 mpk.
`N#Cc1scc2c1CC(N)CC2` (stereo not drawn) [Compound 204, 6-amino-4,5,6,7-tetrahydro-2-benzothiophene-1-carbonitrile hydrochloride]: the minimal effective dose under setting [1] was found to be 3 mg/kg. For the same molecule, under setting [2], the AD result is reported as “ND (^ <4%)”, the AG result was “ND (^ <4%)”, the AN entry is given as “ND (^ <4%)” and the AP entry was “++++ (≥74%)”. Moreover, under setting [2], the AX result is recorded as “ND (^ <4%)”, the CE entry was “ND (^ <4%)”, the HL result is given as “ND (^ <4%)” and the MS entry is “ND (^ <4%)”. Further, under setting [2], the PS result was “ND (^ <4%)”, the SH entry was “ND (^ <4%)” and the UK entry is “ND (^ <4%)”.
With `CNC1CCc2sc(F)cc2C1` (single isomer, unassigned; enantiomer 1) [Compound 98, 2-fluoro-N-methyl-4,5,6,7-tetrahydrobenzothiophen-5-amine hydrochloride enantiomer 1], the minimal effective dose (dose having 45% or more total activity in SmartCube, if only one dose was tested, read-out: MED (minimal effective dose)) was 3 mg/kg. Besides, under setting [4], the AD entry was “ND (^ <4%)”, the AG entry was “ND (^ <4%)”, the AN entry is on record as “ND (^ <4%)” and the CE entry was “ND (^ <4%)”. For the same molecule, under setting [4], the HL result is given as “ND (^ <4%)”, the MS entry is “ND (^ <4%)”, the PS result is “ND (^ <4%)” and the SH result is listed as “ND (^ <4%)”. For the same molecule, under setting [6], the AP result was “++ (≥24%)”, the AX entry is “+ (≥4%)” and the UK result was “++ (≥24%)”.
Take `N#Cc1scc2c1CC(N)CC2` (single isomer, unassigned) [Compound 313, 6-amino-4,5,6,7-tetrahydro-2-benzothiophene-1-carbonitrile hydrochloride]: under setting [7], the AD entry is given as “ND (^ <4%)”, the AG entry is given as “ND (^ <4%)”, the AN entry was “ND (^ <4%)” and the AP entry is “ND (^ <4%)”. For the same molecule, under setting [7], the AX result is given as “ND (^ <4%)”, the CE entry is recorded as “ND (^ <4%)”, the HL entry is “ND (^ <4%)” and the MS entry was “ND (^ <4%)”. Under setting [7], the PS entry is given as “ND (^ <4%)” and the SH entry is “ND (^ <4%)”. Also, under setting [8], the UK result was “+ (≥4%)”. The MED (minimal effective dose: dose having 45% or more total activity in SmartCube, if only one dose was tested, hydrochloride) was over 3 mpk.
Turning to `CCc1csc2c1CC(NC)CC2` (single isomer, unassigned) [Compound 252, 3-ethyl-N-methyl-4,5,6,7-tetrahydrobenzothiophen-5-amine hydrochloride], under setting [2], the AD result is listed as “ND (^ <4%)”, the AG entry is listed as “ND (^ <4%)”, the AN result is “ND (^ <4%)” and the AX result was “ND (^ <4%)”. Under setting [2], the HL result is on record as “ND (^ <4%)”, the MS entry was “ND (^ <4%)” and the SH entry is given as “ND (^ <4%)”. Under setting [9], the AP result is “+ (≥4%)”, the CE result is reported as “ND (^ <4%)”, the PS result is given as “ND (^ <4%)” and the UK entry was “+++ (≥49%)”. This molecule returned an MED (minimal effective dose: dose having 45% or more total activity in SmartCube, if only one dose tested, hydrochloride) of 3 mpk.
For `N#Cc1csc2c1CC(N)CC2` (single isomer, unassigned) [Compound 176, 5-amino-4,5,6,7-tetrahydrobenzo[b]thiophene-3-carbonitrile hydrochloride], the minimal effective dose under setting [1] was over 3 mg/kg. Under setting [2], the AD result is reported as “ND (^ <4%)”, the AG entry is “ND (^ <4%)”, the AN entry is given as “ND (^ <4%)” and the AP entry is “ND (^ <4%)”. Under setting [2], the AX entry was “ND (^ <4%)”, the CE entry is “ND (^ <4%)”, the HL entry was “ND (^ <4%)” and the MS result is “ND (^ <4%)”. Moreover, under setting [2], the PS result was “ND (^ <4%)” and the SH entry was “ND (^ <4%)”. For the same molecule, under setting [9], the UK entry is on record as “ND (^ <4%)”.
`CNC1Cc2cc(C)sc2C1` (single isomer, unassigned) [Compound 318, N, 2-dimethyl-5,6-dihydro-4H-cyclopenta[b]thiophen-5-amine hydrochloride]: under “minimal effective dose: dose having 45% or more total activity in SmartCube, if only one dose was tested, read-out: MED”, the minimal effective dose stood at 3 mg/kg. Under setting [7], the AD result is “ND (^ <4%)”, the AG entry was “ND (^ <4%)”, the AN result was “ND (^ <4%)” and the HL result was “ND (^ <4%)”. Further, under setting [7], the MS result is reported as “ND (^ <4%)”, the PS result is “ND (^ <4%)” and the SH entry is “ND (^ <4%)”. Under setting [8], the AP result is recorded as “+ (≥4%)”, the AX result is given as “+ (≥4%)”, the CE entry is recorded as “ND (^ <4%)” and the UK result is recorded as “+++ (≥49%)”.
`CNC1CCc2c(F)csc2C1` (single isomer, unassigned) [Compound 84, 3-fluoro-N-methyl-4,5,6,7-tetrahydrobenzothiophen-6-amine hydrochloride]: the “MED (minimal effective dose)” value under setting [3] was determined as 0.1 mpk. Also, under setting [4], the AG entry is on record as “ND (^ <4%)”, the AN result is on record as “ND (^ <4%)”, the HL result is given as “ND (^ <4%)” and the MS entry is reported as “ND (^ <4%)”. Under setting [4], the PS result is given as “ND (^ <4%)” and the UK result is listed as “ND (^ <4%)”. For the same molecule, under setting [5], the AD result is given as “+ (≥4%)”, the AP entry is reported as “ND (^ <4%)”, the AX entry was “ND (^ <4%)” and the CE entry is reported as “ND (^ <4%)”. Also, the SH result under setting [5] is “+++ (≥49%)”.

Values taken from US20260274814A1, “THIENYL COMPOUNDS FOR THE TREATMENT OF A CENTRAL NERVOUS SYSTEM DISEASE OR DISORDER” (Coreterra Therapeutics, Inc., priority 2023, published 2026).
